Where two headings read alike, the source gives them in different places.
Experiments:
[1] = biological target: T1, BIKE (amino acids S38-E345) (K320A, K321A) (Homo sapiens, UniProt Q9NSY1, K320A/K321A); assay: BIKE pSENs assay; type: biochemical
T1 construct: against BIKE (amino acids S38-E345) (K320A, K321A); 6His (N, cleaved yes)
Protocol: (§1) The recombinant proteins were independently expressed in Escherichia coli BL21(DE3) cells cultured in Luria-Bertani (LB) medium until OD600 reached 0.6-0.8, then cooled to 15° C. and supplemented with 0.5 mM isopropyl 1-thio-D-galactopyranoside (IPTG) induce protein expression 16 h. Cells were harvested and resuspended in lysis buffer (50 mM HEPES pH 7.5, 500 mM NaCl, 5 mM imidazole, 5% glycerol, 0.5 mM Tris (2-carboxyethyl) phosphine (TCEP), cOmplete Protease Inhibitor Tablet (Roche)) and lysed by microfludics high pressure homogenizer (UH-06, Union-Biotech). Proteins were purified using […] chromatography (His FF column, Bestchrom) and eluted stepwise in binding buffer with 20-300 mM imidazole. Removal of the hexahistidine tag was performed at 4° C. overnight using recombinant TEV protease and reacted with BirA to obtain the corresponding biotinylated-AAK1, BIKE or GAK proteins. Further separated in the reverse Strep column (Strep-Tactin® XT, IBA). The Biotin elution sample was collected containing untagged biotinylated protein was then purified by Ion-exchange chromatography (Mono Q 10/100 GL, Cytiva) and Size-exclusion chromatography (HiLoad 16/600 Superdex 200 pg, Cytiva). The pure protein was stored in a storage buffer 50 mM HEPES (pH 7.5), 300 mM NaCl, 5% glycerol at −80° C. Protein were characterized by SDS-PAGE, LC-MS and aSEC.
(§2) BIKE protein was dissolved at 20 nM in 1× enzyme solution (50 mM HEPES pH7.5, 10 mM MgCl2, 1 mM DTT, 1% glycerol, 0.5 mM EGTA, 0.01% Briji35, 0.02% BSA) and 12.5 ul was incubated with 250 nl DMSO or 250 nl compound in DMSO at 25° C. for 15 min. The reaction was started by addition of 12.5 ul of 30 uM AQT0759 (Assayquant, CSKS-AQT0759B) and 40 uM ATP which were diluted in 1× substrate dilution buffer (50 mM HEPES pH7.5, 10 mM MgCl2, 1 mM DTT, 1% glycerol, 0.5 mM EGTA, 0.01% Briji35).

[2] = biological target: T2, AAK1 (amino acids T27-A365) (Homo sapiens, UniProt Q2M2I8); assay: AAK1 pSENs assay; type: biochemical
T2 construct: against AAK1 (amino acids T27-A365); 6His (N, cleaved yes)
Protocol: as §1
as §2, with “This example describes one illustrative method for determining the IC50 of the compounds of the present invention against AAK1 (amino acids T27-A365). AAK1” for “BIKE”, “70” for “40”

AAK1 = AAK1 (Homo sapiens, UniProt Q2M2I8); assay: pAP2M1 cell-based assay (in-cell Western)
Source text: pAP2M1 Cell-Based Assay (in-Cell Western):
The plate was read on Licor Odyssey CLx imaging system (LICOR) to acquire fluorescence intensity at 700 channel and 800 channel.
Data analysis: Fluorescence intensity at 700 channel served as internal standard and 800 channel were normalized with 700 channel.

[3] = class symbols, read-out: BIKE pSENs: IC50
[4] = class symbols, read-out: AAK1 pSENs: EIC50
[5] = Hela cells co-transfected with AP2M1 and AAK1, 3 hr treatment, class symbols, read-out: AAK1 In-cell Western: IC50

T2 sequence (Q2M2I8 27-365): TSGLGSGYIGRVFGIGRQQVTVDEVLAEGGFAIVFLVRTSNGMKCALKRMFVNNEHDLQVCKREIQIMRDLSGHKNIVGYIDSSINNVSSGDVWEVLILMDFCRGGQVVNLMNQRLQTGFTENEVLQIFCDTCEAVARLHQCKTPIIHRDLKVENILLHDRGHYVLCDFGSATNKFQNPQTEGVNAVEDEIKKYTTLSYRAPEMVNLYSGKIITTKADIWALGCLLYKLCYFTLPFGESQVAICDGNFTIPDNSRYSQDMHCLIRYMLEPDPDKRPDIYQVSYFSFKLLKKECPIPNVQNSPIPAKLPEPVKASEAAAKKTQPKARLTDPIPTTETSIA
Chain of AAK1 (Q2M2I8 whole entry): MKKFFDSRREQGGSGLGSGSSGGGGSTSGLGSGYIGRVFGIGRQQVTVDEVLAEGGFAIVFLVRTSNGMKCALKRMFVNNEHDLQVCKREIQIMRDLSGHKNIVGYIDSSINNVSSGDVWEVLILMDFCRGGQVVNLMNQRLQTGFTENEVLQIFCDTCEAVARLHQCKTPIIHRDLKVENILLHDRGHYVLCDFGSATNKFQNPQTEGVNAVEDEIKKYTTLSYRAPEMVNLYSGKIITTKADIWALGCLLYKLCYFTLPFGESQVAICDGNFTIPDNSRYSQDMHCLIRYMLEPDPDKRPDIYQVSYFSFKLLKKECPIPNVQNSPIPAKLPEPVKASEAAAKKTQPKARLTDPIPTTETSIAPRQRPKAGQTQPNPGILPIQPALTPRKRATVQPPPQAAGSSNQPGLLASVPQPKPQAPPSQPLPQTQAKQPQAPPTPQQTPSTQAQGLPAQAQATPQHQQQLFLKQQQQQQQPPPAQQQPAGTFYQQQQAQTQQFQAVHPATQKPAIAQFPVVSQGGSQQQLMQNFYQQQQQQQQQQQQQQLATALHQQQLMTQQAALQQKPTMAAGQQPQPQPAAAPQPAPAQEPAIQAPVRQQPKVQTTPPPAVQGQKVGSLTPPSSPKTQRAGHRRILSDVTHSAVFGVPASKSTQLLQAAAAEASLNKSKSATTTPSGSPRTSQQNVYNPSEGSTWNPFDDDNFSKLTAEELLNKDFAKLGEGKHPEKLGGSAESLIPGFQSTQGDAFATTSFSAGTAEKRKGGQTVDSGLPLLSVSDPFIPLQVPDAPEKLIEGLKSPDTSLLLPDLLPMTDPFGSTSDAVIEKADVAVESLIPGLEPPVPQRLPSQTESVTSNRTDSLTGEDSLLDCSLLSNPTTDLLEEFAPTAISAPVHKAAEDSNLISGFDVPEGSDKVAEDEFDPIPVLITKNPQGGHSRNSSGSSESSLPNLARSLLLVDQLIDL
T1 sequence (Q9NSY1 38-345 K320A/K321A): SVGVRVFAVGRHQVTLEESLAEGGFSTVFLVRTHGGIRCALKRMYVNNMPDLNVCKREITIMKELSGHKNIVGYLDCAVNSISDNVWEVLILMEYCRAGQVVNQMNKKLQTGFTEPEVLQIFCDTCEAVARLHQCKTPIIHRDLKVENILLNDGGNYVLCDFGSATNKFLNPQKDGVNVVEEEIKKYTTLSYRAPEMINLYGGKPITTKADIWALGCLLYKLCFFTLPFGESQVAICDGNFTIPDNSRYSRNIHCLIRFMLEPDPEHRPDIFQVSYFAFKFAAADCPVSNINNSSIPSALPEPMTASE

IC50 [1, 3] [nM] | IC50 [2, 4] [nM] | IC50 (AAK1; [5]) [nM] | Structure (SMILES) | IC50 [1] [nM] | IC50 [2] [nM] | IC50 (AAK1) [nM]
501 to 1500 | 1 to 50 | > 1500 | CC(=O)N1CC(Oc2ncccc2-c2cnn3ccc(N4CCN(C(=O)O[C@@H]5CNC(=O)C5)CC4)nc23)C1 [Compound I-59, (S)-5-oxopyrrolidin-3-yl 4-(3-(2-((1-acetylazetidin-3-yl)oxy)pyridin-3-yl)pyrazolo[1,5-a]pyrimidin-5-yl)piperazine-1-carboxylate] |  |  | 
501 to 1500 | 1 to 50 | 501 to 1500 | COCCN1C[C@@H](OC(=O)N2CCN(c3ccn4ncc(-c5cccnc5OC5CC5)c4n3)CC2)CC1=O [Compound I-115, [(3S)-1-(2-methoxyethyl)-5-oxo-pyrrolidin-3-yl]-4-[3-[2-(cyclopropoxy)-3-pyridyl]pyrazolo[1,5-a]pyrimidin-5-yl]piperazine-1-carboxylate] |  |  | 
151 to 500 | 1 to 50 | > 1500 | O=C1C[C@H](OC(=O)N2CCN(c3ccn4ncc(-c5cccnc5OC5CC5)c4n3)CC2)CN1CCO [Compound I-38, [(3S)-1-(2-Hydroxyethyl)-5-oxo-pyrrolidin-3-yl]-4-[3-[2-(cyclopropoxy)-3-pyridyl]pyrazolo[1,5-a]pyrimidin-5-yl]piperazine-1-carboxylate] |  |  | 
151 to 500 | 1 to 50 | > 1500 | O=C1C[C@H](OC(=O)N2CCN(c3ccn4ncc(-c5cccnc5OC5COC5)c4n3)CC2)CN1 [Compound I-25, [(3S)-5-Oxopyrrolidin-3-yl]4-[3-[2-(oxetan-3-yloxy)-3-pyridyl]pyrazolo[1,5-a]pyrimidin-5-yl]piperazine-1-carboxylate] |  |  | 
51 to 150 | 1 to 50 | 501 to 1500 | CNCCN1C[C@@H](OC(=O)N2CCN(c3ccn4ncc(-c5cccnc5OC5CC5)c4n3)CC2)CC1=O [Compound I-36, (S)-1-(2-(methylamino)ethyl)-5-(oxopyrrolidin-3-yl)-4-(3-(2-cyclopropoxypyridin-3-yl)pyrazolo[1,5-a]pyrimidin-5-yl)piperazine-1-carboxylate] |  |  | 
151 to 500 | 51 to 150 | > 1500 | CN1C[C@@H](OC(=O)N2CCN(c3nc4c(-c5cccnc5OC5CCOC5)cnn4cc3F)CC2)CC1=O (stereo partly drawn) [Compound I-120, [(3S)-1-methyl-5-oxo-pyrrolidin-3-yl]4-[6-fluoro-3-(2-tetrahydrofuran-3-yloxy-3-pyridyl)pyrazolo[1,5-a]pyrimidin-5-yl]piperazine-1-carboxylate] |  |  | 

Continued, compound first:

Structure (SMILES) | IC50 [1, 3] [nM] | IC50 [2, 4] [nM] | IC50 (AAK1; [5]) [nM] | IC50 [1] [nM] | IC50 [2] [nM] | IC50 (AAK1) [nM]
[2H]C1([2H])N(C(=O)O[C@@H]2CNC(=O)C2)C([2H])([2H])C([2H])([2H])N(c2ccn3ncc(-c4cccnc4OC4CC4)c3n2)C1([2H])[2H] [Compound I-72, [(3S)-5-oxopyrrolidin-3-yl]4-[3-[2-(cyclopropoxy)-3-pyridyl]pyrazolo[1,5-a]pyrimidin-5-yl]-2,2,3,3,5,5,6,6-octadeuterio-piperazine-1-carboxylate] |  |  |  | 151 to 500 | 1 to 50 | 501 to 1500
CC1(OC(=O)N2CCN(c3ccn4ncc(-c5cccnc5OC5CC5)c4n3)CC2)COC1 [Compound I-2, (3-methyloxetan-3-yl)-4-[3-[2-(cyclopropoxy)-3-pyridyl]pyrazolo[1,5-a]pyrimidin-5-yl]piperazine-1-carboxylate] | 151 to 500 | 1 to 50 | 51 to 150 |  |  | 
CC(C)Oc1ncccc1-c1cnn2ccc(N3CCN(C(=O)OC4(C)COC4)CC3)nc12 [Compound I-1, (3-methyloxetan-3-yl)-4-[3-(2-isopropoxy-3-pyridyl)pyrazolo[1,5-a]pyrimidin-5-yl]piperazine-1-carboxylate] | 501 to 1500 |  |  |  | 51 to 150 | 501 to 1500
CN1CC[C@@](C)(OC(=O)N2CCN(c3ccn4ncc(-c5cccnc5OC5CC5)c4n3)CC2)C1 [Compound I-50, [(3R)-1,3-dimethylpyrrolidin-3-yl]-4-[3-[2-(cyclopropoxy)-3-pyridyl]pyrazolo[1,5-a]pyrimidin-5-yl]piperazine-1-carboxylate] | 501 to 1500 | 1 to 50 | 151 to 500 |  |  | 
CN1C[C@@H](OC(=O)N2CCN(c3ccn4ncc(-c5cccnc5OC5CC5)c4n3)CC2)CC1=O [Compound I-34, [(3S)-1-methyl-5-oxo-pyrrolidin-3-yl]-4-[3-[2-(cyclopropoxy)-3-pyridyl]pyrazolo[1,5-a]pyrimidin-5-yl]piperazine-1-carboxylate] |  | 1 to 50 | 151 to 500 | 151 to 500 |  | 
COC(=O)N1CC(Oc2ncccc2-c2cnn3ccc(NCCN(C)C(=O)OC(C)(C)C)nc23)C1 [Compound I-64, Methyl3-[[3-[5-[2-[tert-butoxycarbonyl(methyl)amino]ethylamino]pyrazolo[1,5-a]pyrimidin-3-yl]-2-pyridyl]oxy]azetidine-1-carboxylate] | 51 to 150 | 1 to 50 | 51 to 150 |  |  | 
CC1(OC(=O)N2CCN(c3ccn4ncc(-c5cccnc5OC5COC5)c4n3)CC2)COC1 [Compound I-18, (3-Methyloxetan-3-yl)-4-[3-[2-(oxetan-3-yloxy)-3-pyridyl]pyrazolo[1,5-a]pyrimidin-5-yl]piperazine-1-carboxylate] | 501 to 1500 | 1 to 50 | 151 to 500 |  |  | 
CC(C)(C)OC(=O)N1CCC(N2C[C@@H](OC(=O)N3CCN(c4ccn5ncc(-c6cccnc6OC6CC6)c5n4)CC3)CC2=O)CC1 [Compound I-30, [(3S)-1-(1-tert-Butoxycarbonyl-4-piperidyl)-5-oxo-pyrrolidin-3-yl]4-[3-[2-(cyclopropoxy)-3-pyridyl]pyrazolo[1,5-a]pyrimidin-5-yl]piperazine-1-carboxylate] | 501 to 1500 | 51 to 150 | > 1500 |  |  | 
CC(C)(C)OC(=O)N1CC(Oc2ncccc2-c2cnn3ccc(N4CCN(C(=O)O[C@@H]5CNC(=O)C5)CC4)nc23)C1 [Compound I-42] | 151 to 500 | 1 to 50 | 501 to 1500 |  |  | 
CN(CCNc1ccn2ncc(-c3cccnc3OC3CN(C(=O)OC(C)(C)C)C3)c2n1)C(=O)OC(C)(C)C [Compound I-62, Tert-butyl3-[[3-[5-[2-[tert-butoxycarbonyl(methyl)amino]ethylamino]pyrazolo[1,5-a]pyrimidin-3-yl]-2-pyridyl]oxy]azetidine-1-carboxylate] | 151 to 500 | 1 to 50 | > 1500 |  |  | 
COc1ncccc1-c1cnn2ccc(N3CCN(C(=O)O[C@H]4CO[C@H]5OCC[C@H]54)CC3)nc12 [Compound I-65, (3R,3aS,6aR)-hexahydrofuro[2,3-b]furan-3-yl 4-(3-(2-methoxypyridin-3-yl)pyrazolo[1,5-a]pyrimidin-5-yl)piperazine-1-carboxylate] | 151 to 500 | 1 to 50 | 151 to 500 |  |  | 
COc1ncccc1-c1cnn2ccc(N3CCN(C(=O)OC4CNC(=O)C4)CC3)nc12 (stereo not drawn) [Compound I-6, (5-Oxopyrrolidin-3-yl) 4-[3-(2-methoxy-3-pyridyl)pyrazolo[1,5-a]pyrimidin-5-yl]piperazine-1-carboxylate] | 1 to 50 | 1 to 50 | 501 to 1500 |  |  | 
COCCN1C[C@@H](OC(=O)N2CCN(c3ccn4ncc(-c5cc(F)cnc5OC5CC5)c4n3)CC2)CC1=O [Compound I-89] | 151 to 500 | 1 to 50 | 501 to 1500 |  |  | 
CN(CCNc1ccn2ncc(-c3cccnc3OC3CC3)c2n1)C(=O)O[C@@H]1CNC(=O)C1 [Compound I-60, [(3S)-5-oxopyrrolidin-3-yl]N-[2-[[3-[2-(cyclopropoxy)-3-pyridyl]pyrazolo[1,5-a]pyrimidin-5-yl]amino]ethyl]-N-methyl-carbamate] | 501 to 1500 | 51 to 150 | > 1500 |  |  | 

From US20250122207A1, “AP2 ASSOCIATED KINASE 1 INHIBITORS AND USES THEREOF” (Satellos Bioscience Inc., priority 2023, published 2025)
